In patent publication US20030224469A1, “Methods and kits for assays utilizing fluorescence polarization” (priority 2002, published 2003):
Read-outs that look alike come from different tables or passages of the source.

What was measured:
[1] = target: glucocorticoid receptor (GR) (Homo sapiens, UniProt P04150)
Procedure: A non-labeled steroid (dexamethasone) was serially diluted in 10 mM potassium phosphate pH 7.4,20 mM Na2MoO4, 2% DMSO, 0.1 mM EDTA, 0.5 mM DTT buffer containing 0.1 mM stabilizing peptide. This steroid was used as a competitive binder to glucocorticoid receptor (GR). […] Control wells were also prepared without either unconjugated fluorescein or TMR present. As in Examples 1 and 2, two separate fluorescence polarization values were obtained for each sample using a green filter or a red filter.

[2] = target: T1, T-Cell Protein Tyrosine Phosphatase (TC PTP) (Homo sapiens, UniProt P17706); assay: FP-based protein tyrosine phosphatase assay (dual color); type: biochemical
T1 construct: purchased New England Biolabs
T1 sequence (P17706 1-317 limits assumed): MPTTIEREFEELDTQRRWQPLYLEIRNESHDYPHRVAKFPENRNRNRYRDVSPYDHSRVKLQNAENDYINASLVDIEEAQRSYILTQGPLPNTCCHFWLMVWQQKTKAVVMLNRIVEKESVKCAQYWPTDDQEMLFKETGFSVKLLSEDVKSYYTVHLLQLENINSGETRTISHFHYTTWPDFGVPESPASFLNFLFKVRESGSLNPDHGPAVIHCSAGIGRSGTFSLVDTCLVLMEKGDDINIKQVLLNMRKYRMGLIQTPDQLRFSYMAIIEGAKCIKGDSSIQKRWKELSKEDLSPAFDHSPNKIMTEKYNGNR
Procedure: The enzymatic activity of T-Cell Protein Tyrosine Phosphatase (TC PTP) was measured in a dose-dependent manner by incubating different concentrations of TC PTP (New England Biolabs; Beverly, Mass.), from 0.05 U/μL to 0.0005 U/μL, with 50 μL of a mixture of an anti-phosphotyrosine antibody, a fluorescein-labeled phosphopeptide and a tetramethylrhodamine-labeled phosphopeptides. The final reaction volume was […]. Two control assays were performed. […] Fluorescence polarization measurements were performed using the appropriate excitation and emission filters appropriate for each fluorophore. Increasing concentrations of TC PTP result in an increased rate of dephosphorylation of the labeled phosphopeptides, which is indicated by a decrease in polarization (due to the inability of the dephosphorylated peptide to bind to the antibody).
In a black, 96-well plate (DYNEX; Chantilly, Va.), Na3VO4 (Sigma; St. Louis, Mo.) was serially diluted 2-fold into 24 wells from a starting concentration of 500 nM in a volume of 50 μL. TC PTP was then added to each well so that the final concentration of the enzyme would be 0.005 U/μL per assay. […] At the end of the incubation, 10 μL of 550 μM Na3VO4 was added to quench all of the reactions, and the polarization for each sample was measured on a TECAN Polarion using the appropriate excitation and emission filters appropriate for each fluorophore. […]

Chain of glucocorticoid receptor (GR) (P04150 whole entry, species assumed): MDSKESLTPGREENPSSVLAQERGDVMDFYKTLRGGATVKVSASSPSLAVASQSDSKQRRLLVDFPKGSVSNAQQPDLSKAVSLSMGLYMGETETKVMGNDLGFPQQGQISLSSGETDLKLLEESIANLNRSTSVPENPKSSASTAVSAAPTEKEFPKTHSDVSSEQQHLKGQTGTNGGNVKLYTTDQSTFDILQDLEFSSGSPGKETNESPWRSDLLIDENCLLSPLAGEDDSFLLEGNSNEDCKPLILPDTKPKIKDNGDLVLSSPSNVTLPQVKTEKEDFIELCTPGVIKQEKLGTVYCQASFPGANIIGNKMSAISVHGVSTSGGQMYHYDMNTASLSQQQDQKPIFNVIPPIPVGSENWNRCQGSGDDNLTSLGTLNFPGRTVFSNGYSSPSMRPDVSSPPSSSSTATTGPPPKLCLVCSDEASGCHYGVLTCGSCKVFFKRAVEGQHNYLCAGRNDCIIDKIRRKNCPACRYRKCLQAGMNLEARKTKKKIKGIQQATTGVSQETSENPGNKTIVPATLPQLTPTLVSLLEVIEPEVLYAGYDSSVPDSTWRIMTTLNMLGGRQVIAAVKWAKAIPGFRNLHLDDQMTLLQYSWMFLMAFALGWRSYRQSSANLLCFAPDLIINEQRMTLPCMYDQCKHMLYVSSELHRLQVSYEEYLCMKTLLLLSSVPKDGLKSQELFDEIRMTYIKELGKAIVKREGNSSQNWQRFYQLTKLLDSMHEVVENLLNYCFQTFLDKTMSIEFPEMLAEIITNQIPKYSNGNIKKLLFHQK

fluorescence polarization ([1]; high concentrations of steroid competitor) | fluorescence polarization ([1]; low concentration of competitor) [mP] | inhibition of TC PTP-dependent change in polarization ([2]; 50 μM Na3VO4) | IC50 ([2]; TC PTP 0.005 U/μL, 15 minutes incubation, nonlinear regression of semi-log plot) [nM] | Molecule
about 60 mP | ~260 |  |  | dexamethasone [steroid competitor]
 |  | completely inhibited | 4 | [Na+].[Na+].[Na+].[O]=[V]([O-])([O-])[O-] [Na3VO4]
